Data as given in patent US10030016B2 (Sunesis Pharmaceuticals, Inc., priority 2009, dated 2018).
Read-outs that look alike come from different tables or passages of the source.

How the values were obtained:
PDK1 = PDK1 (Homo sapiens (Human), UniProt O15530); assay: PDK1 kinase assay (coupled PDK1/AKT/FAM-crosstide assay, IMAP fluorescence polarization); assay type: biochemical; conditions: inhibition of phospo-PDK1 in vitro
How it was run: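 PDK1 activity is measured indirectly through activation of a PIFtide-fused AKT2 construct that phosphorylates FAM-crosstide (100 nM). The reaction uses 0.75 nM PDK1, 40 μM ATP, 30 min, 25° C, with IMAP polarization detection.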

[1] = tested on: phospho-akt (Thr308) in PC-3 cells; assay: Inhibition of phospho-akt (Thr308) in PC-3 cells, MSD phospho-akt 308 ELISA kit; assay type: cell-based; conditions: Homo sapiens, inhibition of P308 Akt in PC-3 cells, 2 hours, no serum, MSD, read-out: EC50
How it was run: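 Electrochemiluminescent MSD ELISA of Thr308-phosphorylated Akt after a 2 h serum-free compound exposure of PC-3 cells (15,000/well, plated overnight). Controls: DMSO (high), 5 μM wortmannin (low). Lysate binding overnight at 4 °C; detection antibody 1 h at room temperature.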

Sequence of PDK1 (O15530 51-359): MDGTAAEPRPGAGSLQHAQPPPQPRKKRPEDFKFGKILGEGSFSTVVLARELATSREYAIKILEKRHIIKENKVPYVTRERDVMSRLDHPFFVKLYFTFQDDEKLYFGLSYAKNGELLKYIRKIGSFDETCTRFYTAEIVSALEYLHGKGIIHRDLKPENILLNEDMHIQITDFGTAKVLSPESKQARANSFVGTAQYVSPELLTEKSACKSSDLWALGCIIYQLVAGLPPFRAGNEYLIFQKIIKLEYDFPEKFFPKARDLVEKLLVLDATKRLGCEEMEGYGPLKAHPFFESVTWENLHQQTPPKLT

Structure (SMILES)	IC50 (PDK1) [nM]	EC50 [1] [µM]	EC50 ([1]; PC-3, 2 h) [µM]
O=C(NCc1ccc(F)c(F)c1)c1cccnc1NCc1ccc(-c2ccc3ncnc(N4CCC4)c3c2)s1 [Example 4.9, 2-(((5-(4-(azetidin-1-yl)quinazolin-6-yl)thiophen-2-yl)methyl)amino)-N-(3,4-difluorobenzyl)nicotinamide]	< 100	1 to 10	
O=C(NCc1ccc(F)c(F)c1)c1cccnc1NCc1ccc(-c2ccc3ncnc(NC4CC4)c3c2)s1 [Example 4.10, 2-(((5-(4-(cyclopropylamino)quinazolin-6-yl)thiophen-2-yl)methyl)amino)-N-(3,4-difluorobenzyl)nicotinamide]	< 100	1 to 10	
O=C(NCc1ccc(F)c(F)c1)c1cccnc1NCc1ccc(-c2ccc3ncnc(N4CCOCC4)c3c2)s1 [Example 4.11, N-(3,4-difluorobenzyl)-2-(((5-(4-morpholinoquinazolin-6-yl)thiophen-2-yl)methyl)amino)nicotinamide]	< 100	> 10	
CC(C)Nc1ncnc2ccc(-c3ccc(CNc4ncccc4C(=O)NCc4ccc(F)c(F)c4)s3)cc12 [Example 4.12, N-(3,4-difluorobenzyl)-2-(((5-(4-(isopropylamino)quinazolin-6-yl)thiophen-2-yl)methyl)amino)nicotinamide]	< 100	1 to 10	
O=C(NCc1ccc(F)c(F)c1)c1cccnc1NCc1ccc(-c2ccc3ncnc(NCCN4CCCC4)c3c2)s1 [Example 4.20, N-(3,4-difluorobenzyl)-2-(((5-(4-(2-(pyrrolidin-1-yl)ethylamino)quinazolin-6-yl)thiophen-2-yl)methyl)amino)nicotinamide]	100 to 1000	> 10	
CC(C)(C)Nc1ncnc2ccc(-c3ccc(CNc4ncccc4C(=O)NCc4ccc(F)c(F)c4)s3)cc12 [Example 4.23, N-(3,4-difluorobenzyl)-2-(((5-(4-(tert-butylamino)quinazolin-6-yl)thiophen-2-yl)methyl)amino) nicotinamide]	1000 to 5000	> 10	
C[C@H](NC(=O)c1cccnc1NCc1ccc(-c2ccc3ncc(-n4cccn4)nc3c2)s1)c1ccc(F)c(F)c1 [Example 4.26, (S)-2-(((5-(3-(1H-pyrazol-1-yl)quinoxalin-6-yl)thiophen-2-yl)methyl)amino)-N-(1-(3,4-difluorophenyl)ethyl)nicotinamide]	> 5000	> 10	
CNc1cnc2ccc(-c3ccc(CNc4ncccc4C(=O)N[C@@H](C)c4ccc(F)c(F)c4)s3)cc2n1 [Example 4.28, (S)-N-(1-(3,4-difluoro-phenyl)ethyl)-2-(((5-(3-(methyl)amino)quinoxalin-6-yl)thiophen-2-yl)methylamino) nicotinamide]	100 to 1000	1 to 10	
C[C@H](NC(=O)c1cccnc1NCc1ccc(-c2ccc3nccnc3c2)s1)c1ccc(F)c(F)c1 [Example 4.31]	> 5000	> 10	
COCCNc1ncnc2ccc(-c3ccc(CNc4ncccc4C(=O)N[C@@H](C)c4ccc(F)c(F)c4)s3)cc12 [Example 4.33]	< 100	1 to 10	
C[C@H](NC(=O)c1cccnc1NCc1ccc(-c2ccc3ncnc(N4CC(O)C4)c3c2)s1)c1ccc(F)c(F)c1 [Example 4.34]	< 100	1 to 10	
C[C@H](NC(=O)c1cccnc1NCc1ccc(-c2ccc3ncnc(NC4COC4)c3c2)s1)c1ccc(F)c(F)c1 [Example 4.35]	< 100	1 to 10	
C[C@H](NC(=O)c1cccnc1NCc1ccc(-c2ccc3ncnc(NC4CNC4)c3c2)s1)c1ccc(F)c(F)c1 [Example 4.36, 2-({5-[4-(Azetidin-3-ylamino)-quinazolin-6-yl]-thiophen-2-ylmethyl}-amino)-N-[(S)-1-(3,4-difluoro-phenyl)-ethyl]-nicotinamide]	< 100	1 to 10	
CC(C)Oc1cc(CNc2ncccc2C(=O)NCc2ccc(F)c(F)c2)cc(-c2ccc3ncncc3c2)c1 [Example 5.3, N-(3,4-difluorobenzyl)-2-(3-isopropoxy-5-(quinazolin-6-yl)benzylamino) nicotinamide]	100 to 1000	> 10	
CC(C)Oc1cc(CNc2ncccc2C(=O)NCc2ccc(F)c(F)c2)cc(-c2ccc3ncccc3c2)c1 [Example 5.4, N-(3,4-difluorobenzyl)-2-(3-isopropoxy-5-(quinolin-6-yl)benzylamino) nicotinamide]	1000 to 5000		> 10

Continued, values first:

IC50 (PDK1) [nM]	EC50 [1] [µM]	EC50 ([1]; PC-3, 2 h) [µM]	Structure (SMILES)
< 100	< 1		Nc1ncnc2[nH]cc(-c3ccc(CNc4ncccc4C(=O)NCc4ccc(F)c(F)c4)s3)c12 [Example 4.8, 2-(((5-(4-amino-7H-pyrrolo[2,3-d]pyrimidin-5-yl)thiophen-2-yl)methyl)amino)-N-(3,4-difluorobenzyl)nicotinamide]
> 5000	> 10		CN(c1ncnc2ccc(-c3ccc(CNc4ncccc4C(=O)NCc4ccc(F)c(F)c4)s3)cc12)C1CCCCC1 [Example 4.21, 2-(((5-(4-(cyclohexyl (methyl)amino)quinazolin-6-yl)thiophen-2-yl)methyl)amino)-N-(3,4-difluorobenzyl) nicotinamide]
100 to 1000	1 to 10		O=C(NCc1ccc(F)c(F)c1)c1cccnc1NCc1ccc(-c2ccc3ncnc(NCC(F)(F)F)c3c2)s1 [Example 4.22, N-(3,4-difluorobenzyl)-2-(((5-(4-(2,2,2-trifluoroethylamino)quinazolin-6-yl)thiophen-2-yl)methyl)amino)nicotinamide]
< 100	1 to 10		CNc1ncnc2ccc(-c3ccc(CNc4ncccc4C(=O)NCc4ccc(F)c(F)c4)s3)cc12 [Example 4.24, N-(3,4-difluorobenzyl)-2-(((5-(4-(methylamino)quinazolin-6-yl)thiophen-2-yl)methyl)amino)nicotinamide]
> 5000	> 10		CNC(=O)c1ncnc2ccc(-c3ccc(CNc4ncccc4C(=O)N[C@@H](C)c4ccc(F)c(F)c4)s3)cc12 [Example 4.25, (S)-6-(5-((3-(1-(3,4-difluorophenyl)ethyl-carbamoyl)pyridin-2-ylamino)methyl)thiophen-2-yl)-N-methylquinazoline-4-carboxamide]
1000 to 5000	> 10		C[C@H](NC(=O)c1cccnc1NCc1ccc(-c2ccc3ncc(N(C)C)nc3c2)s1)c1ccc(F)c(F)c1 [Example 4.27, (S)-N-(1-(3,4-difluoro-phenyl)ethyl)-2-(((5-(3-(dimethylamino)quinoxalin-6-yl)thiophen-2-yl)methyl)amino)nicotinamide]
> 5000	> 10		C[C@H](NC(=O)c1cccnc1NCc1ccc(-c2ccc3ncc(-n4ccnc4)nc3c2)s1)c1ccc(F)c(F)c1 [Example 4.29, (S)-2-(((5-(3-(1H-imidazol-1-yl)quinoxalin-6-yl)thiophen-2-yl)methyl)amino)-N-(1-(3,4-difluorophenyl)ethyl) nicotinamide]
100 to 1000		1 to 10	C[C@H](NC(=O)c1cccnc1NCc1ccc(-c2ccc3ncc(N)nc3c2)s1)c1ccc(F)c(F)c1 [Example 4.30, (S)-2-(((5-(3-aminoquinoxalin-6-yl)thiophen-2-yl)methyl)amino)-N-(1-(3,4-difluorophenyl)ethyl) nicotinamide]
100 to 1000		> 10	C[C@H](NC(=O)c1cccnc1NCc1ccc(-c2ccc3ncc(-n4ccnc4N)nc3c2)s1)c1ccc(F)c(F)c1 [Example 4.32, (S)-2-(((5-(3-(2-amino-1H-imidazol-1-yl)quinoxalin-6-yl)thiophen-2-yl)methyl)amino)-N-(1-(3,4-difluorophenyl)ethyl) nicotinamide]
100 to 1000	1 to 10		C[C@H](NC(=O)c1cccnc1NCc1ccc(-c2ccc3ncnc(N4CC(C)(O)C4)c3c2)s1)c1ccc(F)c(F)c1 [Example 4.37]
< 100	1 to 10		C[C@H](NC(=O)c1cccnc1NCc1ccc(-c2ccc3ncnc(N4CC(CO)C4)c3c2)s1)c1ccc(F)c(F)c1 [Example 4.38]
< 100	> 10		CC(C)Oc1cc(CNc2ncccc2C(=O)NCc2ccc(F)c(F)c2)cc(-c2ccc3ncnc(NC4CC4)c3c2)c1 [Example 5.5, 2-(3-(4-(cyclopropylamino)quinazolin-6-yl)-5-isopropoxy-benzylamino)-N-(3,4-difluorobenzyl)nicotinamide]
< 100	1 to 10		CC(C)Oc1cc(CNc2ncccc2C(=O)NCc2ccc(F)c(F)c2)cc(-c2ccc3ncnc(N)c3c2)c1 [Example 5.6]
< 100	1 to 10		CC(C)Oc1cc(CNc2ncccc2C(=O)NCc2ccc(F)c(F)c2)cc(-c2c[nH]c3ncccc23)c1 [Example 5.7, N-(3,4-difluorobenzyl)-2-(3-isopropoxy-5-(1H-pyrrolo[2,3-b]pyridin-3-yl)benzylamino)nicotinamide]
< 100	1 to 10		CC(C)Oc1cc(CNc2ncccc2C(=O)NCc2ccc(F)c(F)c2)cc(-c2c[nH]c3ncncc23)c1 [Example 5.8, N-(3,4-difluorobenzyl)-2-{[3-(propan-2-yloxy)-5-(7H-pyrrolo[2,3-d]pyrimidin-5-yl)benzyl]amino}pyridine-3-carboxamide]
< 100	1 to 10		Nc1ncnc2ccc(-c3cccc(CNc4ncccc4C(=O)NCc4ccc(F)c(F)c4)c3)cc12 [Example 6.1, 2-(3-(4-aminoquinazolin-6-yl)benzylamino)-N-(3,4-difluorobenzyl)nicotinamide]
